The text below walks through data of ChEMBL document CHEMBL1201862, “PubChem BioAssay data set” (2004).

Test systems include CAKI-1; HCT-116; HCT-15; HOP-62; LOX IMVI; M19-MEL; MOLT-4; NCI-H522; OVCAR-8; SF-268; SF-539; SK-MEL-28; SK-OV-3; SN12C; SW-620; U-251; UO-31; EKVX.
Holding throughout (experiment): NCI anticancer screen, dose series, 48 h

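The compound was tested at five concentrations on cells cultured in 96-well plates, with a 48-hour exposure period. GI50: concentration for 50% inhibition of growth.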 Activity calls are given as the source filed them. Cut-off read from the data, not from the text of the source: active = GI50 up to about 1.1 µM and inactive = higher.

As to `Oc1ccc2ccccc2c1/N=N/c1ccc(F)cc1`, the GI50 in the assay with CAKI-1 is > 100 µM (inactive); with HCT-116, > 100 µM (inactive); in the assay with HCT-15, over 100 µM; with HOP-62, > 100 µM (inactive); in the assay on LOX IMVI, > 100 µM (inactive); in the assay on M19-MEL, > 100 µM (inactive). The GI50 in the assay with MOLT-4, in the assay on NCI-H522, in the assay with OVCAR-8, in the assay with SF-268, in the assay on SF-539 and with SK-MEL-28 was > 100 µM (inactive) throughout. Besides, the GI50 is > 100 µM (inactive) in the assay with SK-OV-3; 42.7 µM (inactive) in the assay on SN12C; > 100 µM (inactive) with SW-620; > 100 µM (inactive) with U-251; 42.6 µM (inactive) in the assay on UO-31.
Take `c1ccc(SC2(Sc3ccccc3)CCCC2)cc1`: the GI50 with CAKI-1 is > 100 µM (inactive); with EKVX it was > 100 µM (inactive); with HCT-116, > 100 µM (inactive); with HCT-15 it was over 100 µM; in the assay with HOP-62, > 100 µM (inactive); in the assay on LOX IMVI, > 100 µM (inactive). In addition, the GI50 in the assay with M19-MEL, in the assay with MOLT-4, with NCI-H522, with OVCAR-8, with SF-268 and in the assay on SF-539 was > 100 µM (inactive) in each case. Moreover, the GI50 in the assay with SK-MEL-28, with SK-OV-3, in the assay on SN12C, with SW-620, in the assay on U-251 and in the assay on UO-31 was > 100 µM (inactive) each time.
Turning to `CC1=C(C(=O)O)N2C(=O)[C@@H](NC(=O)C(c3ccccc3)N3CSC(=S)N(C(C)C)C3)C2SC1` (some centres undefined), the GI50 in the assay on CAKI-1 was > 100 µM (inactive); in the assay with EKVX, > 100 µM (inactive); with HCT-116, > 100 µM (inactive); with HCT-15, over 100 µM; in the assay on HOP-62, > 100 µM (inactive); in the assay on LOX IMVI it was > 100 µM (inactive). For the same molecule, the GI50 in the assay with M19-MEL is > 100 µM (inactive); in the assay on MOLT-4, > 100 µM (inactive); in the assay with NCI-H522, 30.4 µM (inactive); in the assay on OVCAR-8 it was > 100 µM (inactive); in the assay with SF-539, > 100 µM (inactive); in the assay with SK-MEL-28, 59 µM (inactive). Also, the GI50 in the assay with SK-OV-3, in the assay on SN12C, in the assay on U-251 and with UO-31 was > 100 µM (inactive) each time.
Regarding `CC(C)(C)C(=O)C1CC(=O)c2ccccc2C1=O` (centres undefined), the GI50 with CAKI-1 is 39.6 µM (inactive); in the assay on EKVX it was 32.4 µM (inactive); in the assay with HCT-116, 21.4 µM (inactive); in the assay with HOP-62, 25.2 µM (inactive); with LOX IMVI it was 40.8 µM (inactive); with M19-MEL it was 32.9 µM (inactive). In addition, the GI50 in the assay on MOLT-4 was 27.8 µM (inactive); in the assay on NCI-H522, 23.6 µM (inactive); in the assay on OVCAR-8, 37 µM (inactive); with SF-268 it was 21.8 µM (inactive); in the assay with SF-539, 34.3 µM (inactive); with SK-MEL-28 it was 20.5 µM (inactive). The GI50 with SK-OV-3 was 27.1 µM (inactive); in the assay on SN12C it was 28.2 µM (inactive); with SW-620 it was 32.4 µM (inactive); in the assay on U-251, 34 µM (inactive); in the assay with UO-31, 21.7 µM (inactive).
As for `N#CC(C#N)c1ccc(C(=O)N2CCC[C@H]2CO)cc1`, the GI50 was > 100 µM (inactive) in the assay on CAKI-1; > 100 µM (inactive) in the assay with EKVX; over 100 µM in the assay on HCT-15; > 100 µM (inactive) in the assay on HOP-62; > 100 µM (inactive) with LOX IMVI; > 100 µM (inactive) in the assay with M19-MEL. Moreover, the GI50 with MOLT-4, with NCI-H522, in the assay with OVCAR-8, in the assay with SF-268, with SF-539 and in the assay with SK-MEL-28 was > 100 µM (inactive) throughout. Also, the GI50 in the assay on SK-OV-3, in the assay on SN12C, in the assay on SW-620, in the assay with U-251 and in the assay with UO-31 was > 100 µM (inactive) each time.
`N#Cc1cc([N+](=O)[O-])ccc1NC(=O)C(=O)C(C(=O)/C=C/c1ccccc1)C1OC(=O)c2ccccc21` (centres undefined): the GI50 in the assay with CAKI-1 is > 100 µM (inactive); in the assay with EKVX it was > 100 µM (inactive); in the assay with HCT-116 it was > 100 µM (inactive); with HCT-15 it was over 100 µM; in the assay on HOP-62 it was > 100 µM (inactive); in the assay with LOX IMVI it was > 100 µM (inactive). Besides, the GI50 in the assay with M19-MEL, in the assay with NCI-H522, in the assay on OVCAR-8, with SF-268, in the assay on SF-539 and in the assay with SK-MEL-28 was > 100 µM (inactive) each time. The GI50 with SK-OV-3, in the assay on SN12C, with SW-620, with U-251 and with UO-31 was > 100 µM (inactive) in each case.
As to `COc1cc2ccc3c4ccccc4cnc3c2cc1OC`, the GI50 in the assay on CAKI-1 is > 100 µM (inactive); with EKVX, > 100 µM (inactive); with HCT-116, > 100 µM (inactive); with HCT-15 it was over 100 µM; with HOP-62 it was > 100 µM (inactive); in the assay with LOX IMVI, > 100 µM (inactive). The GI50 is > 100 µM (inactive) in the assay with M19-MEL; 93.1 µM (inactive) with MOLT-4; > 100 µM (inactive) in the assay with NCI-H522; > 100 µM (inactive) in the assay on OVCAR-8; > 100 µM (inactive) with SF-268; > 100 µM (inactive) in the assay with SF-539. The GI50 with SK-MEL-28, in the assay on SK-OV-3, with SN12C, in the assay on SW-620, with U-251 and in the assay on UO-31 was > 100 µM (inactive) in each case.
For the molecule `Cc1cc(C)nc(NS(=O)(=O)c2ccc(Nc3c4ccccc4nc4c(C(=O)Nc5ccc(S(=O)(=O)N=C(N)N)cc5)cccc34)cc2)n1`, the GI50 in the assay on CAKI-1 was > 100 µM (inactive); with EKVX it was > 100 µM (inactive); with HCT-15 it was over 100 µM; in the assay with HOP-62, > 100 µM (inactive); in the assay with LOX IMVI, > 100 µM (inactive); in the assay with M19-MEL, > 100 µM (inactive). For the same molecule, the GI50 with MOLT-4 is > 100 µM (inactive); in the assay on NCI-H522 it was > 100 µM (inactive); with OVCAR-8, > 100 µM (inactive); in the assay on SF-268, > 100 µM (inactive); in the assay with SF-539, > 100 µM (inactive); with SK-MEL-28 it was 67.3 µM (inactive). The GI50 with SK-OV-3 was > 100 µM (inactive); in the assay on SN12C it was > 100 µM (inactive); in the assay with SW-620 it was > 100 µM (inactive); in the assay with U-251, 98.9 µM (inactive); in the assay on UO-31, 85.3 µM (inactive).
As for `O=C1C(=O)N(c2ccc(Cl)cc2)C(=O)C(=O)C1c1nc2ccccc2s1`, the GI50 with CAKI-1 was > 100 µM (inactive); in the assay with EKVX, > 100 µM (inactive); in the assay on HCT-116, > 100 µM (inactive); with HCT-15, over 100 µM; in the assay with HOP-62, 42.7 µM (inactive); with LOX IMVI, > 100 µM (inactive). The GI50 in the assay on M19-MEL was > 100 µM (inactive); with MOLT-4, 21.9 µM (inactive); in the assay on NCI-H522, > 100 µM (inactive); with OVCAR-8, > 100 µM (inactive); with SF-268, > 100 µM (inactive); with SF-539, 74.3 µM (inactive). Besides, the GI50 in the assay with SK-MEL-28, with SK-OV-3, in the assay with SN12C, with SW-620, in the assay with U-251 and in the assay with UO-31 was > 100 µM (inactive) in each case.
In the case of `COCCN1C2=CCCCC2=Nc2c1nc(N)[nH]c2=O`, the GI50 in the assay with CAKI-1 is > 100 µM (inactive); in the assay with EKVX, > 100 µM (inactive); with HCT-116, > 100 µM (inactive); with HCT-15, over 100 µM; in the assay with HOP-62 it was > 100 µM (inactive); in the assay on LOX IMVI it was > 100 µM (inactive). Also, the GI50 in the assay on M19-MEL, in the assay with MOLT-4, in the assay on NCI-H522, in the assay on OVCAR-8, in the assay on SF-268 and in the assay on SF-539 was > 100 µM (inactive) throughout. In addition, the GI50 in the assay with SK-MEL-28, in the assay on SK-OV-3, in the assay on SN12C, with U-251 and in the assay on UO-31 was > 100 µM (inactive) throughout.
Turning to `Cc1cc(N(CCC#N)CCC#N)ccc1/C=C1N=C(/C=C\c2ccccc2)N(NC(=O)CC(=O)Nc2ccccc2Cl)C\1=O`, the GI50 in the assay with CAKI-1 was > 100 µM (inactive); in the assay with HCT-116, > 100 µM (inactive); in the assay with HCT-15 it was over 100 µM; in the assay with HOP-62, > 100 µM (inactive); in the assay on LOX IMVI, > 100 µM (inactive); in the assay with M19-MEL, > 100 µM (inactive). Besides, the GI50 with MOLT-4, in the assay on NCI-H522, in the assay with OVCAR-8, with SF-268, in the assay on SF-539 and in the assay with SK-MEL-28 was > 100 µM (inactive) throughout. Further, the GI50 in the assay with SK-OV-3, in the assay with SN12C, in the assay on SW-620, in the assay on U-251 and in the assay with UO-31 was > 100 µM (inactive) in each case.
